Read-outs that look alike come from different tables or passages of the source.
Experiments:
lean female mice = test: Intravenous glucose tolerance test (IVGTT) in lean female mice; assay type: in vivo, mouse; conditions: 30 nmol/kg i.p. 15 min prior to IVGTT; trend towards lower response
Experimental: Lean female mice (body weight 20–25 g), were randomized on body weight and fasted 4 hours prior to the IVGTT. Metabolex-36 (100 mg/kg) was administered orally 60 min and AZ13581837 (35mg/kg) 30 min before the IVGTT ([…]). Control mice were given vehicle (0.5% HPMC, 0.1% Tween-80) at corresponding time points. The specificity of AZ13581837 was examined in IVGTT in GPR120 null mice. GPR120 agonist doses were selected to reach plasma levels of at least 10 times over the in vitro EC50 value to achieve maximal activation of GPR120 (S2 Appendix). Thirty minutes prior to the glucose load, the mice were anaesthetised (20 mg/kg fluanisone/0.8 mg/kg fentanyl (Hypnorm®, Janssen, Beerse, Belgium) and 10 mg/kg midazolam (Dormicum®, Hoffman-LaRoche, Basel, Switzerland)) to allow for rapid blood sampling. The mice were kept at a heating pad to maintain body temperature.
In separate experiments, mice were pretreated with the GLP-1 receptor antagonist exendin 9–39 (30 nmol/kg, Bachem; intraperitoneally) alone or in combination with the GPR120 agonists, 15 min prior to the IVGTT. Insulin and glucose were measured 0, 1, 5, 10, 20 and 40 min after intravenous (iv) glucose administration. In separate groups of mice total GLP-1 levels were measured 60 min after oral administration of Metabolex-36 or 30 min after AZ13581837 and in corresponding vehicle (0.5% HPMC, 0.1% Tween-80) dosed mice. Blood samples were collected in EDTA coated tubes, centrifuged at 10000xg for 4 min, and plasma was separated and stored frozen until analyzed.
In the IVGTT, the acute insulin response (AIR) was calculated as the mean of suprabasal 1 and 5 min values, and the glucose elimination was quantified using the glucose elimination constant (KG) calculated as the slope of the logarithmic transformation of circulating glucose between 1 and 20 min after the glucose bolus. Multiple comparisons between the different groups were performed by one-way ANOVA. Tukey’s or Bonferroni’s post hoc test were used to calculate statistical differences between the groups. Significant statistical difference was considered at p<0.05. Data are presented as mean ± SEM.

GPR120 [1] = test system: GPR120; design: method as in PMID 24997608; conditions: read-out: EC50 in β-arrestin; cited from earlier work
GPR120 [2] = test system: GPR120; design: method as in PMID 24997608; conditions: read-out: EC50 in calcium mobilization; cited from earlier work
[3] = test system: dispersed wt mouse islets cell; test: cAMP production in dispersed wild type mouse islet cells; assay type: cell-based; conditions: 50 nM Exendin-4
Experimental: (§1) Mouse islets were isolated from pancreas by collagenase digestion, handpicked under microscope following multiple washing steps and dispersed to single cells using TrypLE Express (Gibco). The dispersed islet cells (20 000 cells/well) were incubated with the GPR120 agonists for 30 min in 96-well black plates (Corning) at 37°C in Krebs ringer phosphate Hepes buffer, pH 7.4, with 11 mM Glucose, 0.1% BSA and 0.5 mM 3-isobutyl-1-methylxanthine followed by addition of d2-labeled cAMP and anti-cAMP Cryptate in conjugation and lysis buffer (Cisbio). Produced cAMP was detected with homogenous time resolved fluorescence (HTRF) (λex = 340 nm, λem = 665 and 615 nm) using a Pherastar (BMG Labtech).

[4] = test system: islets from GPR120 null mice; test: cAMP production in dispersed islet cells from GPR120 null mice; assay type: cell-based, mouse; conditions: 50 nM Exendin-4
Experimental: as §1

mouse GPR40 = target: T1, mouse GPR40 (Mus musculus, UniProt Q76JU9); test: Calcium mobilization assay in HEK293-mGPR40 cells; assay type: cell-based; conditions: calcium mobilization
T1 construct: expressed in transfected cells
Experimental: CHO-hGPR120 and CHO cells were cultured in DMEM/F-12 (Invitrogen) with 10% FBS (Sigma) and HEK293-mGPR40 in DMEM (Invitrogen) supplemented with 10% FBS in 384-well poly-D-Lysin coated microplates (Greiner) at 37°C, 95% humidity and 5% CO2. After 19 hours cell media was replaced with Calcium4 dye (Molecular Devices) in HBSS (Invitrogen), 20 mM HEPES (Invitrogen), pH 7.4 and 1.25 mM Probenecid (Sigma). After 1 hour at room temperature agonists were added and calcium mobilization was detected as change in fluorescence (λex = 488 and λem = 540 nm) using a FLIPR^TETRA (Molecular Devices).

Caco-2 cells = test system: Caco-2 cells; design: method as in PMID 26791484; conditions: cited from earlier work

T1 sequence (Q76JU9 whole entry): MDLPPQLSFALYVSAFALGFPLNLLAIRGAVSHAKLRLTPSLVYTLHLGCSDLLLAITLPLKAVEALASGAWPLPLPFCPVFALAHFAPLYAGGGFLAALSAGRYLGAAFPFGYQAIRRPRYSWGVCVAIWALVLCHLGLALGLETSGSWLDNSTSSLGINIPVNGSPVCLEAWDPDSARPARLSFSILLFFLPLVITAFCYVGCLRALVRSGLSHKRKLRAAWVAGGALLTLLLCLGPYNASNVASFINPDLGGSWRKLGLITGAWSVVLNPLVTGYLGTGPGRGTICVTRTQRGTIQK

Exendin 9–39
Insulin secretion, exendin 9–39 alone (lean female mice): no significant effect

Exendin-4
cAMP production in islet cells from wt mice (positive control) [3]: significantly stimulate cAMP production
cAMP production in islet cells from GPR120 null mice (positive control) [4]: significantly stimulate cAMP production

O=C(O)CCc1ccc(NCc2cccc(Oc3ccccc3)c2)cc1 [GW9508]
EC50 (mouse GPR40): 900 ± 300 nM
β-arrestin-2 recruitment in Caco-2 cells (Caco-2 cells): recruited β-arrestin-2
